Target: T1, Neutrophil elastase (Homo sapiens) (UniProt P08246)
T1 sequence (whole entry): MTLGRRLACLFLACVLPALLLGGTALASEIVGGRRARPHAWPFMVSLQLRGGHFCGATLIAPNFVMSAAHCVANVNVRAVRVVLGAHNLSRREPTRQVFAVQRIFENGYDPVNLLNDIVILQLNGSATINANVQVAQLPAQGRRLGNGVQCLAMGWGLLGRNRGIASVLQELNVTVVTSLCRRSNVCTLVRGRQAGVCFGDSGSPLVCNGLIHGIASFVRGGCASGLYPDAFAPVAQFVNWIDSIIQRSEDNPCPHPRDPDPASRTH
Test: Bimolecular rate constant for the inhibition of human leukocyte elastase

Row | Structure (SMILES) | Bimolecular inhibition rate constant (kobs/[I]) [M⁻¹ s⁻¹]
1 | O=C1CC(Cc2ccccc2)NC(=O)N1OS(=O)(=O)/C=C/c1ccccc1 (centres undefined) | 1980
2 | CS(=O)(=O)ON1C(=O)CC(Cc2ccccc2)NC1=O (centres undefined) | 800
3 | O=C1NCC(Cc2ccccc2)C(=O)N1OS(=O)(=O)/C=C/c1ccccc1 (centres undefined) | 480
4 | CS(=O)(=O)ON1C(=O)NCC(Cc2ccccc2)C1=O (centres undefined) | 3310

Reference: ChEMBL document CHEMBL1149971, “A general approach toward the design of inhibitors of serine proteinases: inhibition of human leukocyte elastase by substituted dihydrouracils” (Bioorg Med Chem Lett, 1992)
